Target mRNA inhibition data for 45 sequences are collected here from the OligoGym collection.

The target of this data set is SOD1. As to conditions: ASO.

“And” between values parts separate entries of the source, which are not always exact repeats. Identical values can stand only once. After the bases stand the sugars from the 5' end (letter, count) and the backbone: PS all phosphorothioate, else s phosphorothioate and o phosphodiester by linkage. Methylation of C is not given here. e = 2'-O-(2-methoxyethyl) (MOE); k = constrained ethyl (cEt); d = 2'-deoxy (DNA)

For the sequence “ATACATTTCTACAGCT (sugars kekeddddddddekek, linkages s1 o3 s8 o1 s2)”, the target mRNA inhibition reads like this: (A431, 0.12 µM) 15%; (A431, 0.6 µM) 14%; (A431, 3 µM) 16%; (A431, 15 µM) 52%; (HepG2, 0.222 µM) 55%; (HepG2, 0.667 µM) 73%. For the same sequence, the target mRNA inhibition (HepG2, 2 µM) worked out at 89% and the target mRNA inhibition (HepG2, 6 µM) was found to be 95%.

“GAATGACAAAGAAATTCTGA (sugars e5 d10 e5, PS)” yielded a target mRNA inhibition (HepG2, 5 µM) of 0%.

For “GGGCGATCCCAATTACA (sugars e3 k2 d7 k2 e3, PS)”, where the note is “HepG2, 3 µM”, the target mRNA inhibition is 18%.

“TAAGTCTGGCAAAATAC (sugars e2 k2 d9 k2 e2, PS)”: under “HepG2, 5 µM”, the target mRNA inhibition turned out to be 46%.

Regarding “CTCGCTAGGCCACGCCGAGG (sugars e5 d10 e5, PS)”, for the setting “HepG2, 4 µM”, the target mRNA inhibition was found to be 46%.

Sequence “AGCACCCCGTCTCCGCGACT (sugars e5 d10 e5, PS)” came in with a target mRNA inhibition (HepG2, 4 µM) of 24%.

Under “HepG2, 5 µM”, “AGCCTCATAATAAGTGC (sugars e2 k2 d8 k2 e3, PS)” displayed a target mRNA inhibition of 16%.

In turn, “GAGGATTAAAGTGAGGA (sugars e3 k2 d7 k2 e3, PS)” yielded a target mRNA inhibition (HepG2, 3 µM) of 40%.

Sequence “ATAACAGATGAGTTAAG (sugars e2 k2 d9 k2 e2, PS)” showed a target mRNA inhibition (HepG2, 4 µM) of 42%.

In the case of “AGTGATCATAAATCAGT (sugars e2 k2 d9 k2 e2, PS)”, under “HepG2, 5 µM”, the target mRNA inhibition was 32%.

For the sequence “AACAGATGAGTTAAGGG (sugars e2 k2 d9 k2 e2, PS)”, the target mRNA inhibition (HepG2, 0.1875 µM) worked out at 27%; the target mRNA inhibition (HepG2, 0.75 µM) was determined as 49%; the target mRNA inhibition (HepG2, 3 µM) was 82%; the target mRNA inhibition (HepG2, 4 µM) is 86% and 82%; the target mRNA inhibition (HepG2, 12 µM) is 89% and 92%.

As for “ACAGTGTTTAATGTTTAT (sugars e5 d8 e5, linkages s1 o3 s9 o2 s2)”, the target mRNA inhibition was 0% (A431, 0.12 µM); 18% (A431, 0.6 µM); 26% (A431, 3 µM); 45% (A431, 15 µM); 19% (HepG2, 0.222 µM); 30% (HepG2, 0.667 µM). The target mRNA inhibition is 46% and 50% (HepG2, 2 µM); 70% (HepG2, 6 µM).

For the setting “HepG2, 3 µM”, “CATTACTTTCCTTCTGC (sugars e3 k2 d7 k2 e3, PS)” returned a target mRNA inhibition of 28%.

Regarding “ATACATTTCTACAGCTAG (sugars e5 d8 e5, linkages s1 o3 s9 o2 s2)”, the target mRNA inhibition is, setting by setting: (A431, 0.12 µM) 9%; (A431, 0.6 µM) 10%; (A431, 3 µM) 27%; (A431, 15 µM) 43%; (HepG2, 0.222 µM) 7%; (HepG2, 0.667 µM) 28%. The target mRNA inhibition reads like this: (HepG2, 2 µM) 54%; (HepG2, 6 µM) 79%.

In turn, “CATCTGCTTTTTCATGG (sugars e3 k2 d7 k2 e3, PS)” displayed a target mRNA inhibition (HepG2, 3 µM) of 70%.

“TTAAGTCTGGCAAAATA (sugars e2 k2 d8 k2 e3, PS)” yielded a target mRNA inhibition (HepG2, 5 µM) of 27%.

Regarding “TAATGTTTATCAGGAT (sugars kekeddddddddekek, linkages s1 o3 s8 o1 s2)”, the target mRNA inhibition by setting is: (A431, 0.12 µM) 0%; (A431, 0.6 µM) 15%; (A431, 3 µM) 17%; (A431, 15 µM) 48%.

Regarding “TTTTATTCACAGGCTTG (sugars e2 k2 d9 k2 e2, PS)”, the target mRNA inhibition (HepG2, 5 µM) turned out to be 48%.

As for “AAAGTCACACAATTACACTT (sugars e5 d10 e5, PS)”, the target mRNA inhibition (HepG2, 5 µM) was 15%.

With “ACAGTGTTTAATGTTTA (sugars e3 k2 d7 k2 e3, PS)”, the target mRNA inhibition was 35% (HepG2, 0.1875 µM); 71% (HepG2, 0.75 µM); 56% and 79% (HepG2, 3 µM); 82% (HepG2, 12 µM).

For the sequence “ACATGCCTCTCTTCATC (sugars e3 k2 d7 k2 e3, PS)”, the target mRNA inhibition (HepG2, 3 µM) stood at 0%.

In the case of “CATCTTTGTCAGCAGTCACA (sugars e5 d10 e5, PS)”, the target mRNA inhibition (HepG2, 5 µM) was 34% and 13%.

For the setting “HepG2, 5 µM”, “AGCCTCATAATAAGTGC (sugars e2 k2 d9 k2 e2, PS)” displayed a target mRNA inhibition of 11%.

With “CAGCAGTCACATTGCCC (sugars e3 k2 d7 k2 e3, PS)”, the target mRNA inhibition (HepG2, 3 µM) came to 7%.

As for “CTTCATCCTTTGGCCCA (sugars e3 k2 d7 k2 e3, PS)”, the target mRNA inhibition (HepG2, 3 µM) stood at 35%.

In turn, “GCCCTTCAGCACGCACA (sugars e2 k2 d9 k2 e2, PS)” showed a target mRNA inhibition (HepG2, 4 µM) of 60%.

For “AAGTCACACAATTACAC (sugars e2 k2 d9 k2 e2, PS)”, the target mRNA inhibition (HepG2, 5 µM) came to 37%.

On to “TGTGATTTAAGTCTGGC (sugars e2 k2 d8 k2 e3, PS)”, for which, for the setting “HepG2, 5 µM”, the target mRNA inhibition was 45%.

Where the note is “HepG2, 3 µM”, “AACATGCCTCTCTTCAT (sugars e3 k2 d7 k2 e3, PS)” returned a target mRNA inhibition of 13%.

For the sequence “ATTTCTACAGCTAGCAG (sugars e2 k2 d9 k2 e2, PS)”, the target mRNA inhibition (HepG2, 0.1875 µM) is 10%; the target mRNA inhibition (HepG2, 0.75 µM) was 47%; the target mRNA inhibition (HepG2, 3 µM) stood at 77%; the target mRNA inhibition (HepG2, 4 µM) was found to be 75%; the target mRNA inhibition (HepG2, 12 µM) came out at 91%.

As to “ATACATTTCTACAGCT (sugars ekddddddddekekee, linkages s1 o1 s8 o3 s2)”, the target mRNA inhibition worked out at 0% (A431, 0.12 µM); 9% (A431, 0.6 µM); 0% (A431, 3 µM); 25% (A431, 15 µM); 43% (HepG2, 0.222 µM); 58% (HepG2, 0.667 µM). Besides, the target mRNA inhibition was 79% (HepG2, 2 µM) and 91% (HepG2, 6 µM).

Regarding “CTTTGGCCCACCGTGTTTTC (sugars e5 d10 e5, PS)”, the target mRNA inhibition (HepG2, 5 µM) is 31% and 15%.

“TCTTCCAAGTGATCATA (sugars e2 k2 d8 k2 e3, PS)”: where the note is “HepG2, 5 µM”, the target mRNA inhibition came out at 33%.

On to “CACATTGCCCAAGTCTCCAA (sugars e5 d10 e5, PS)”, for which, under “HepG2, 5 µM”, the target mRNA inhibition was 36% and 19%.

In turn, “TTCACAGGCTTGAATGA (sugars e3 k2 d7 k2 e3, PS)” yielded a target mRNA inhibition (HepG2, 3 µM) of 9%.

The sequence “CCAGCACCCCGTCTCCGCGA (sugars e5 d10 e5, PS)” showed a target mRNA inhibition (HepG2, 4 µM) of 38%.

Consider “ACAGGTCATTGAAACAG (sugars e3 k2 d7 k2 e3, PS)”, for which, where the note is “HepG2, 3 µM”, the target mRNA inhibition came to 14%.

Take “TGCCATACAGGGTTTTT (sugars e2 k2 d8 k2 e3, PS)”: where the note is “HepG2, 5 µM”, the target mRNA inhibition came out at 21%.

Regarding “CAGTCACATTGCCCAAGTCT (sugars e5 d10 e5, PS)”, under “HepG2, 5 µM”, the target mRNA inhibition was 40% and 27%.

In turn, “TGACAAGTTTAATACCC (sugars e2 k2 d9 k2 e2, PS)” had a target mRNA inhibition (HepG2, 5 µM) of 52%.

Where the note is “HepG2, 3 µM”, “TACAGTGTTTAATGTTT (sugars e3 k2 d7 k2 e3, PS)” showed a target mRNA inhibition of 30%.

“GGAATGTTTATTGGGCG (sugars e3 k2 d7 k2 e3, PS)” registered a target mRNA inhibition (HepG2, 3 µM) of 15%.

Consider “TATAGGCCAGACCTCCGCGC (sugars e5 d10 e5, PS)”, for which the target mRNA inhibition (HepG2, 4 µM) stood at 40%.

With “CTACAGCTAGCAGGATA (sugars e2 k2 d9 k2 e2, PS)”, the target mRNA inhibition came out at 30% (HepG2, 0.1875 µM); 80% (HepG2, 0.75 µM); 93% (HepG2, 3 µM); 91% (HepG2, 4 µM); 97% (HepG2, 12 µM).

As to “GCACTGGGCCGTCGCCCTTC (sugars e5 d10 e5, PS)”, the target mRNA inhibition (HepG2, 4 µM) was determined as 14%.
